What was measured:
Format in all cases: biochemical
[1] = target: T1, collagenase (MMP-1) (Homo sapiens, UniProt P03956); assay: MMP-1 enzyme inhibition assay (coumarin-labelled peptide substrate); conditions: for inhibition at 5 µM / inhibition at 0.1 µM: read-out: percentage inhibition MMP1
T1 sequence (P03956 100-469): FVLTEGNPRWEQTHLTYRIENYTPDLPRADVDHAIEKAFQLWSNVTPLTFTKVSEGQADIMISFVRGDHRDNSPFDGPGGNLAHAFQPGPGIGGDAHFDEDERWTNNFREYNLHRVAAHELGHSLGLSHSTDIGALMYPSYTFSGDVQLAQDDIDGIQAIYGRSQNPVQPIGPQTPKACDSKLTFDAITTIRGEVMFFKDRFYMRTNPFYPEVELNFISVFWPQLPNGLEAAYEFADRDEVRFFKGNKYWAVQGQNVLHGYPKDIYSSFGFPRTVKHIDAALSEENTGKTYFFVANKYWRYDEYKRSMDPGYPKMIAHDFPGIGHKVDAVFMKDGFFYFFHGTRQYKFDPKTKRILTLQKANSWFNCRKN
In short: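 Recombinant human MMP-1, APMA-activated if needed, in Tris-HCl pH 7.6 with NaCl, CaCl2 and 0.05% Brij 35; McaPLGLDpaAR substrate added as 8 μM solution, 2 h at 37 °C. Fluorescence (320/405 nm) read without stopping; IC50 from 10 duplicate concentrations (100 μM–5.1 nM) by four-parameter fit.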

[2] = target: MMP-14 (Homo sapiens, UniProt P50281); assay: MMP-14 enzyme inhibition assay (coumarin-labelled peptide substrate); conditions: for inhibition at 0.1 µM / inhibition at 5 µM: read-out: percentage inhibition MMP14
In short: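 Recombinant human enzyme, APMA-activated if necessary, was incubated with McaPLGLDpaAR substrate and compound (10 concentrations in duplicate, 100 μM to 5.1 nM) in Tris-HCl pH 7.6 with NaCl, CaCl2 and Brij 35 for 2 h at 37 °C. Fluorescence was read at 320/405 nm, and IC50 was taken from a four-parameter fit.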

[3] = target: T2, gelatinase A (MMP-2) (Homo sapiens, UniProt P08253); assay: MMP-2 enzyme inhibition assay (coumarin-labelled peptide substrate); conditions: read-out: IC50 MMP2
T2 sequence (P08253 110-660): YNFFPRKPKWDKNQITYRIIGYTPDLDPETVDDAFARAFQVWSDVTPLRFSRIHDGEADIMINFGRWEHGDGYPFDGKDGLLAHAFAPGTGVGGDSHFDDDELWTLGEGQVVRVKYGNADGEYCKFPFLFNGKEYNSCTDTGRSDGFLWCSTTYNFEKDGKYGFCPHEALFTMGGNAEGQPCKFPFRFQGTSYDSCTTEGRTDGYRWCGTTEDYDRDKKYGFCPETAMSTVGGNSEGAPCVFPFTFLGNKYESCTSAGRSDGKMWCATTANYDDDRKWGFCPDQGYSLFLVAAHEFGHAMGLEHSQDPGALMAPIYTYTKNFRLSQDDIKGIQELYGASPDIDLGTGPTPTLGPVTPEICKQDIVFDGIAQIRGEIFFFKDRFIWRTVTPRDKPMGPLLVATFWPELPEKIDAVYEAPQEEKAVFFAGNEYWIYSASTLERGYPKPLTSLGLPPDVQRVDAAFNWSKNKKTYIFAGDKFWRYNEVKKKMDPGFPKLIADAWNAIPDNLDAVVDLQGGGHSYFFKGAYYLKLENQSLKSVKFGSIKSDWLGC
In short: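 Recombinant human MMP-2, APMA-activated if necessary, run as for the MMP-9 protocol: McaPLGLDpaAR substrate (8 μM working dilution) in 100 mM Tris-HCl pH 7.6, 100 mM NaCl, 10 mM CaCl2, 0.05% Brij 35; ten 3-fold concentrations (100 μM–5.1 nM) in duplicate, 2 h at 37° C. Fluorescence ex 320/em 405 nm, unstopped; IC50 from four-parameter fit.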

Row | SMILES | inhibition at 5 µM [1] | inhibition at 0.1 µM [2] | inhibition at 5 µM [2] | IC50 [3] | inhibition at 0.1 µM [1] | IC50 ([1]; read-out: IC50 MMP1) | IC50 ([2]; read-out: IC50 MMP14)
1 | CC(C)(C)CC(CS(=O)(=O)N1CCc2ccc(Cl)cc2C1)N(O)C=O (stereo not drawn) [Example 41, N-(1-{[(7-chloro-3,4-dihydroisoquinolin-2(1H)-yl)sulfonyl]-methyl}-3,3-dimethylbutyl)-N-hydroxyformamide] | 54% | 5% | 74% | 87 nM |  |  | 
2 | O=CN(O)[C@H](CS(=O)(=O)N1CCc2ccc(Cl)cc2C1)[C@H]1CCCO1 [Example 23, N-{(1S)-2-[(7-chloro-3,4-dihydroisoquinolin-2(1H)-yl)sulfonyl]-1-[(2R)-tetrahydrofuran-2-yl]ethyl}-N-hydroxyformamide] | 52% | 7% | 72% | 27 nM |  |  | 
3 | CC1(C)OC[C@H](C(CS(=O)(=O)N2Cc3ccccc3C2)N(O)C=O)O1 (stereo partly drawn) [Example 16, N-{2-(1,3-dihydro-2H-isoindol-2-ylsulfonyl)-1-[(4S)-2,2-dimethyl-1,3-dioxolan-4-yl]ethyl}-N-hydroxyformamide] | 74% | 0% | 80% | 78 nM | 5% |  | 
4 | O=CN(O)C(CS(=O)(=O)N1CCc2cc(C(F)(F)F)ccc2C1)C1CC1 (stereo not drawn) [Example 74, N-(1-cyclopropyl-2-{[6-(trifluoromethyl)-3,4-dihydro-isoquinolin-2(1H)-yl]sulfonyl}ethyl)-N-hydroxyformamide] | 44% |  | 76% | 97 nM |  |  | 
5 | CC(C)(C)OC(=O)N1CCC[C@@H]1[C@@H](CS(=O)(=O)N1CCc2cc(Cl)c(Cl)cc2C1)N(O)C=O (racemic) [Example 44, tert-butyl (2RS)-2-{(1SR)-2-[(6,7-dichloro-3,4-dihydro-isoquinolin-2(1H)-yl)sulfonyl]-1-[formyl(hydroxy)amino]ethyl}pyrrolidine-1-carboxylate] | 9% | 5% | 83% | 91 nM |  |  | 
6 | O=CN(O)C(COCc1ccccc1)CS(=O)(=O)N1CCc2ccc(C(F)(F)F)cc2C1 (stereo not drawn) [Example 59, N-[2-(benzyloxy)-1-({[7-(trifluoromethyl)-3,4-dihydro-isoquinolin-2(1H)-yl]sulfonyl}methyl)ethyl]-N-hydroxyformamide] | 35% |  | 43% | 83 nM |  |  | 
7 | CCC(CC)C(CS(=O)(=O)N1CCc2cc(C(C)C)ccc2C1)N(O)C=O (stereo not drawn) [Example 35, N-(2-ethyl-1-{[(6-isopropyl-3,4-dihydroisoquinolin-2(1H)-yl)sulfonyl]methyl}butyl)-N-hydroxyformamide] | 6% | 7% | 85% | 62 nM |  |  | 
8 | COc1cc2c(cc1OC)CN(S(=O)(=O)CC([C@H]1COC(C)(C)O1)N(O)C=O)CC2 (stereo partly drawn) [Example 14, N-{2-[(6,7-dimethoxy-3,4-dihydroisoquinolin-2(1H)-yl)sulfonyl]-1-[(4S)-2,2-dimethyl-1,3-dioxolan-4-yl]ethyl}-N-hydroxyformamide] | 0% |  | 0% | > 5000 nM |  |  | 
9 | O=CN(O)C(CS(=O)(=O)N1CCc2ccc(Cl)cc2C1)C1CCCC1 (stereo not drawn) [Example 21, N-{2-[(7-chloro-3,4-dihydroisoquinolin-2(1H)-yl)sulfonyl]-1-cyclopentylethyl}-N-hydroxyformamide] | 20% |  | 45% | 103 nM |  |  | 
10 | O=CN(O)C(CS(=O)(=O)N1CCc2cc(Cl)c(Cl)cc2C1)C1CCCC1 (stereo not drawn) [Example 77, N-{1-cyclopentyl-2-[(6,7-dichloro-3,4-dihydroisoquinolin-2(1H)-yl)sulfonyl]ethyl}-N-hydroxyformamide] | 17% |  | 78% | 31 nM |  |  | 
11 | O=CN(O)[C@@H](CS(=O)(=O)N1CCc2ccc(Cl)cc2C1)[C@H]1CCCO1 [Example 22, N-{(1R)-2-[(7-chloro-3,4-dihydroisoquinolin-2(1H)-yl)sulfonyl]-1-[(2R)-tetrahydrofuran-2-yl]ethyl}-N-hydroxyformamide] | 0% |  | 0% | 470 nM |  |  | 
12 | CC(C)C(CS(=O)(=O)N1CCc2cc(Cl)c(Cl)cc2C1)N(O)C=O (stereo not drawn) [Example 39, N-(1-{[(6,7-dichloro-3,4-dihydroisoquinolin-2(1H)-yl)-sulfonyl]methyl}-2-methylpropyl)-N-hydroxyformamide] | 25% | 10% | 87% | 16 nM |  |  | 
13 | O=CN(O)C(COCc1ccccc1)CS(=O)(=O)N1CCc2ccc(Cl)cc2C1 (stereo not drawn) [Example 58, N-(2-(benzyloxy)-1-{[(7-chloro-3,4-dihydroisoquinolin-2(1H)-yl)sulfonyl]methyl}ethyl)-N-hydroxyformamide] | 68% | 11% | 79% | 20 nM | 4% |  | 
14 | O=CN(O)C(CS(=O)(=O)N1CCc2ccccc2C1)c1cncnc1 (stereo not drawn) [Example 9, N-[2-(3,4-dihydroisoquinolin-2(1H)-ylsulfonyl)-1-pyrimidin-5-ylethyl]-N-hydroxyformamide] | 29% |  | 61% | > 5000 nM |  |  | 
15 | O=CN(O)C(CS(=O)(=O)N1CCc2ccccc2C1)c1cccnc1 (stereo not drawn) [Example 10, N-[2-(3,4-dihydroisoquinolin-2(1H)-ylsulfonyl)-1-pyridin-3-ylethyl]-N-hydroxyformamide] | 8% |  | 36% | > 5000 nM |  |  | 
16 | O=CN(O)C(CS(=O)(=O)N1CCc2ccc(Cl)cc2C1)C1CC1 (stereo not drawn) [Example 73, N-{2-[(7-chloro-3,4-dihydroisoquinolin-2(1H)-yl)sulfonyl]-1-cyclopropylethyl}-N-hydroxyformamide] | 19% |  | 40% | 187 nM |  |  | 
17 | CC1(C)OC[C@H](C(CS(=O)(=O)N2CCc3ccccc3C2)N(O)C=O)O1 (stereo partly drawn) [Example 2, N-{2-(3,4-dihydroisoquinolin-2(1H)-ylsulfonyl)-1-[(4S)-2,2-dimethyl-1,3-dioxolan-4-yl]ethyl}-N-hydroxyformamide] |  |  |  | 530 nM |  | > 5000 nM | > 5000 nM
18 | CC(C)(C)c1ccc2c(c1)CN(S(=O)(=O)CC(COCc1ccccc1)N(O)C=O)CC2 (stereo not drawn) [Example 57, N-(2-(benzyloxy)-1-{[(7-tert-butyl-3,4-dihydroisoquinolin-2(1H)-yl)sulfonyl]methyl}ethyl)-N-hydroxyformamide] | 0% |  | 0% | > 5000 nM |  |  | 
19 | O=CN(O)C(CS(=O)(=O)N1CCc2ccc(-c3cccc(O)c3)cc2C1)C1CCCC1 (stereo not drawn) [Example 70, N-(1-cyclopentyl-2-{[7-(3-hydroxyphenyl)-3,4-dihydroisoquinolin-2(1H)-yl]sulfonyl}ethyl)-N-hydroxyformamide] | 0% |  | 27% | 1560 nM |  |  | 
20 | CCC(CC)C(CS(=O)(=O)N1CCc2ccc(OC)cc2C1)N(O)C=O (stereo not drawn) [Example 38, N-(2-ethyl-1-{[(7-methoxy-3,4-dihydroisoquinolin-2(1H)-yl)sulfonyl]methyl}butyl)-N-hydroxyformamide] | 17% |  | 49% | 71 nM |  |  | 
21 | O=CN(O)C(CS(=O)(=O)N1CCc2ccc(F)cc2C1)C1CCN(Cc2ccccc2)CC1 (stereo not drawn) [Example 53, N-{1-(1-benzylpiperidin-4-yl)-2-[(7-fluoro-3,4-dihydro-isoquinolin-2(1H)-yl)sulfonyl]ethyl}-N-hydroxyformamide] | 16% |  | 34% | 298 nM |  |  | 

Reference: US7879876B2, “Sulfonamide derivatives and use thereof for the modulation of metalloproteinases” (Merck Serono SA, priority 2005, dated 2011)
